How the values were obtained:
Assay in all cases: relative viability (nuclei count vs DMSO), 5 days (fraction); higher = more cells survive
Doramapimod + Pemetrexed = compound: Cc1ccc(-n2nc(C(C)(C)C)cc2NC(=O)Nc2ccc(OCCN3CCOCC3)c3ccccc23)cc1 [Doramapimod] + Nc1nc2[nH]cc(CCc3ccc(C(=O)N[C@@H](CCC(=O)O)C(=O)O)cc3)c2c(=O)[nH]1 [Pemetrexed] (partner 0.2 µM)
Outline: (§1)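 Relative viability is defined as nuclei in treated wells over nuclei in vehicle wells. Duplicate plates were run and medians reported. Lung cancer cell lines in 1536-well plates were dosed by pin tool one day after seeding, with one drug or with a fixed anchor-drug dose plus five library-drug doses (not always all listed) in √10 steps, and nuclei were counted after 5 days.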

Doramapimod + OSI-027 = compound: Cc1ccc(-n2nc(C(C)(C)C)cc2NC(=O)Nc2ccc(OCCN3CCOCC3)c3ccccc23)cc1 [Doramapimod] + COc1cccc2cc(-c3nc([C@H]4CC[C@H](C(=O)O)CC4)n4ncnc(N)c34)[nH]c12 [OSI-027] (partner 0.5 µM)
Outline: as §1

RAF265 + Crizotinib = compound: Cn1c(Nc2ccc(C(F)(F)F)cc2)nc2cc(Oc3ccnc(-c4ncc(C(F)(F)F)[nH]4)c3)ccc21 [RAF265] + C[C@@H](Oc1cc(-c2cnn(C3CCNCC3)c2)cnc1N)c1c(Cl)ccc(F)c1Cl [Crizotinib] (partner 1 µM)
Outline: as §1

Doramapimod + Lapatinib = compound: Cc1ccc(-n2nc(C(C)(C)C)cc2NC(=O)Nc2ccc(OCCN3CCOCC3)c3ccccc23)cc1 [Doramapimod] + CS(=O)(=O)CCNCc1ccc(-c2ccc3ncnc(Nc4ccc(OCc5cccc(F)c5)c(Cl)c4)c3c2)o1 [Lapatinib] (partner 2 µM)
Outline: as §1

UMC-11
relative viability (Doramapimod + Pemetrexed; first compound 0.02 µM): 0.711
relative viability (Doramapimod + Pemetrexed; first compound 0.06325 µM): 0.739
relative viability (Doramapimod + Pemetrexed; first compound 0.2 µM): 0.75
relative viability (Doramapimod + Pemetrexed; first compound 0.6325 µM): 0.708
relative viability (Doramapimod + Pemetrexed; first compound 2 µM): 0.743
relative viability (Doramapimod + OSI-027; first compound 0.02 µM): 0.49
relative viability (Doramapimod + OSI-027; first compound 0.06325 µM): 0.385
relative viability (Doramapimod + OSI-027; first compound 0.2 µM): 0.472
relative viability (Doramapimod + OSI-027; first compound 0.6325 µM): 0.438
relative viability (Doramapimod + OSI-027; first compound 2 µM): 0.444
relative viability (RAF265 + Crizotinib; first compound 0.01 µM): 0.676
relative viability (RAF265 + Crizotinib; first compound 0.03162 µM): 0.604
relative viability (RAF265 + Crizotinib; first compound 0.1 µM): 0.602
relative viability (RAF265 + Crizotinib; first compound 0.3162 µM): 0.648
relative viability (RAF265 + Crizotinib; first compound 1 µM): 0.501
relative viability (Doramapimod + Lapatinib; first compound 0.02 µM): 1.09
relative viability (Doramapimod + Lapatinib; first compound 0.06325 µM): 0.957
relative viability (Doramapimod + Lapatinib; first compound 0.2 µM): 0.901
relative viability (Doramapimod + Lapatinib; first compound 0.6325 µM): 0.743
relative viability (Doramapimod + Lapatinib; first compound 2 µM): 0.654

Source: the supplement of paper PMC10307832
